Measurements as given in PubChem BioAssay AID651731 (NMMLSC, 2012).
Active and inactive are the calls of the source. No rule for the calls is given here.

biological target: not listed separately; test: V-ATPase inhibitors raising yeast vacuolar pH, dose response, S. cerevisiae, BCECF dye, powder sets 2-3 (AID 651731); conditions: S. cerevisiae vacuolar pH, BCECF fluorescence; at 100 µM (top of the series)

Response (vacuolar pH increase), inactive:
Cc1ccc(C(=O)N2CCN(c3nc4ccc(F)cc4s3)CC2)o1
COCc1cccc(C(=O)Nc2ccccc2N2CCOCC2)c1
Cc1cncc(C(=O)N2CCN(c3nc4ccc(F)cc4s3)CC2)n1
Nc1ncc(C(=O)N2CCN(c3nc4ccc(F)cc4s3)CC2)o1
O=C(Nc1ccccc1N1CCOCC1)c1cccc(C(F)(F)F)c1
Nc1cncc(C(=O)N2CCN(c3nc4ccc(F)cc4s3)CC2)n1
CN(C)Cc1ccc(C(=O)Nc2ccccc2N2CCOCC2)o1
Cc1ccc(C(=O)Nc2ccccc2N2CCOCC2)o1
O=C(c1cc(Cl)ccn1)N1CCN(c2nc3ccc(F)cc3s2)CC1
NS(=O)(=O)c1cccc(C(=O)Nc2ccccc2N2CCOCC2)c1
O=C(c1ccc(C(F)(F)F)o1)N1CCN(c2nc3ccc(F)cc3s2)CC1
CS(=O)(=O)c1cccc(C(=O)Nc2ccccc2N2CCOCC2)c1
N#Cc1ccnc(C(=O)Nc2ccccc2N2CCOCC2)c1
CC(C)(C)c1ccc(C(=O)N2CCN(c3nc4ccc(F)cc4s3)CC2)o1
CS(=O)(=O)Cc1cccc(C(=O)N2CCN(c3nc4ccc(F)cc4s3)CC2)c1
Nc1cncc(C(=O)Nc2ccccc2N2CCOCC2)n1
N#Cc1cccc(C(=O)Nc2ccccc2N2CCOCC2)c1
COCc1ccc(C(=O)N2CCN(c3nc4ccc(F)cc4s3)CC2)o1
O=C(c1cc(C(F)(F)F)ccn1)N1CCN(c2nc3ccc(F)cc3s2)CC1
O=C(Nc1ccccc1N1CCOCC1)c1ccc(Br)o1
CN(C)C(=O)c1cccc(C(=O)N2CCN(c3nc4ccc(F)cc4s3)CC2)c1
O=C(Nc1ccccc1N1CCOCC1)c1cc(C(F)(F)F)ccn1
Cc1cncc(C(=O)Nc2ccccc2N2CCOCC2)n1
N#Cc1cccc(C(=O)N2CCN(c3nc4ccc(F)cc4s3)CC2)c1
Cc1cccc(C(=O)N2CCN(c3nc4ccc(F)cc4s3)CC2)n1
NS(=O)(=O)c1cccc(C(=O)N2CCN(c3nc4ccc(F)cc4s3)CC2)c1
O=C(Nc1ccccc1N1CCOCC1)c1cc(Cl)ccn1
CN(C)Cc1ccc(C(=O)N2CCN(c3nc4ccc(F)cc4s3)CC2)o1
NC(=O)c1cccc(C(=O)N2CCN(c3nc4ccc(F)cc4s3)CC2)c1
NC(=O)c1cccc(C(=O)Nc2ccccc2N2CCOCC2)c1
O=C(c1ccc(Br)o1)N1CCN(c2nc3ccc(F)cc3s2)CC1
N#Cc1ccnc(C(=O)N2CCN(c3nc4ccc(F)cc4s3)CC2)c1
CS(=O)(=O)c1ccc(C(=O)N2CCN(c3nc4ccc(F)cc4s3)CC2)o1
NC(=O)c1ccc(C(=O)N2CCN(c3nc4ccc(F)cc4s3)CC2)o1
O=C(Nc1ccccc1N1CCOCC1)c1cccc(Br)n1
CS(=O)(=O)c1ccc(C(=O)Nc2ccccc2N2CCOCC2)o1
CC(C)(C)c1ccc(C(=O)Nc2ccccc2N2CCOCC2)o1
CN(C)S(=O)(=O)c1cccc(C(=O)Nc2ccccc2N2CCOCC2)c1
Cc1ccnc(C(=O)N2CCN(c3nc4ccc(F)cc4s3)CC2)c1
O=C(c1ccc(-c2ccccc2)o1)N1CCN(c2nc3ccc(F)cc3s2)CC1
CN(C)S(=O)(=O)c1cccc(C(=O)N2CCN(c3nc4ccc(F)cc4s3)CC2)c1
COCc1cccc(C(=O)N2CCN(c3nc4ccc(F)cc4s3)CC2)c1
Cc1cccc(C(=O)Nc2ccccc2N2CCOCC2)n1
CN(C)Cc1cccc(C(=O)Nc2ccccc2N2CCOCC2)c1
CN(C)Cc1cccc(C(=O)N2CCN(c3nc4ccc(F)cc4s3)CC2)c1
O=C(Nc1ccccc1N1CCOCC1)c1cccc(C(F)(F)F)n1
Nc1ncc(C(=O)Nc2ccccc2N2CCOCC2)o1
Cc1ccnc(C(=O)Nc2ccccc2N2CCOCC2)c1
O=C(c1cccc(Br)n1)N1CCN(c2nc3ccc(F)cc3s2)CC1
CN(C)C(=O)c1cccc(C(=O)Nc2ccccc2N2CCOCC2)c1
O=C(Nc1ccccc1N1CCOCC1)c1cncc(Cl)n1
COCc1ccc(C(=O)Nc2ccccc2N2CCOCC2)o1
O=C(Nc1ccccc1N1CCOCC1)c1ccc(-c2ccccc2)o1
O=C(c1cncc(Cl)n1)N1CCN(c2nc3ccc(F)cc3s2)CC1
O=C(Nc1ccccc1N1CCOCC1)c1ccc(C(F)(F)F)o1
NS(=O)(=O)c1ccc(C(=O)N2CCN(c3nc4ccc(F)cc4s3)CC2)o1
O=C(c1cc(CO)ccn1)N1CCN(c2nc3ccc(F)cc3s2)CC1
O=C(Nc1ccccc1N1CCOCC1)c1cccc(Cl)n1

biological target: S. cerevisiae vacuolar pH, BCECF fluorescence; test: as above; conditions: not given

EC50, active:
O=C(c1cccc(Cl)n1)N1CCN(c2nc3ccc(F)cc3s2)CC1 37.4 µM
O=C(c1cccc(C(F)(F)F)c1)N1CCN(c2nc3ccc(F)cc3s2)CC1 31.8 µM
O=C(c1cccc(C(F)(F)F)n1)N1CCN(c2nc3ccc(F)cc3s2)CC1 60.5 µM
